According to patent US20250368620A1, “ARNT Degrading Compounds and Uses Thereof” (Celgene Corporation, priority 2024, published 2025):

What follows are molecules tested against T1, ARNT (Homo sapiens, UniProt P27540) (assay: ARNT degradation in a HiBiT system (HEK293 ARNT-HiBiT Knock-In cell line)). Details: half-maximal degradation concentration; HEK293 ARNT-HiBiT KI cells, 4h of treatment, luminescence.
T1 construct: an sgRNA targeting the C-terminus of the ARNT gene near the stop codon; endogenous in cells; host or cells: HEK293 ARNT-HiBiT knock-in, homozygous clone
T1 sequence (P27540 whole entry): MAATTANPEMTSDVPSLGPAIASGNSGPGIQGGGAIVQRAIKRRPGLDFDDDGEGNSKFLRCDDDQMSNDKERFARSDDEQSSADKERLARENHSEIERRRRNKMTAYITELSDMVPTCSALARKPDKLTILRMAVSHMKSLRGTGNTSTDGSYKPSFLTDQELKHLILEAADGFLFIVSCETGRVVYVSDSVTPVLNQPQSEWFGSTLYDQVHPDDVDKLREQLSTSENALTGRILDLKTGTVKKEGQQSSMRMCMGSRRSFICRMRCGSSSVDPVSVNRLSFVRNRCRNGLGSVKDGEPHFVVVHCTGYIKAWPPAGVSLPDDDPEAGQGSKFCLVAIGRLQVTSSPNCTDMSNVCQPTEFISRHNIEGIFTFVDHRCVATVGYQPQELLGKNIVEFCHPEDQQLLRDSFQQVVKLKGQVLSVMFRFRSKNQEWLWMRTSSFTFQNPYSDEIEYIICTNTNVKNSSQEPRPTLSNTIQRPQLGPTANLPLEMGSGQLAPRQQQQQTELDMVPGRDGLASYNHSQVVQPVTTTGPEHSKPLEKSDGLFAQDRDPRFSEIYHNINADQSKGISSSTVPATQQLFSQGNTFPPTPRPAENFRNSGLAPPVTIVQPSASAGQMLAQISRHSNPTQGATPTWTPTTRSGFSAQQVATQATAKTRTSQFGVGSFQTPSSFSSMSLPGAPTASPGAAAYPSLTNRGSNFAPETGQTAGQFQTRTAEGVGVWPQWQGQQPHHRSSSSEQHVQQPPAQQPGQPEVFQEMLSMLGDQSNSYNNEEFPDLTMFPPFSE
Format: cell-based
Method: Compounds of Formula (I) were tested for ARNT degradation in a HiBiT system. A HEK293 ARNT-HiBiT Knock-In cell line was generated using CRISPR/Cas9 technology. Briefly, HEK293 cells were electroporated with the Neon system with an sgRNA targeting the C-terminus of the ARNT gene near the stop codon ([…] (SEQ ID NO: 1); chr 1: 150,812,014-150,812,034) and the HiBiT donor DNA template (80 nucleotides homology arms upstream and downstream of the insert site, with a GSGS (SEQ ID NO: 2) linker). A homozygous clone was selected after Sanger sequencing, and genetic edition was further validated using Nano-Glo HiBiT blotting system. HEK293 ARNT-HiBiT KI cells were cultured in DMEM+10% FBS at 37° C. and 5% CO2. For the assay, cells were seeded at 10,000 cells/well in white 384 plates (Corning #3570) in 22.5 μl of culture medium without phenol red. Test compounds were spotted in 384-well plates by an acoustic dispenser (10 concentrations, semi-log dilution, in 100% DMSO). Before treatment, compounds were diluted 1:100 or 1:1,000 in culture medium without phenol red, and cells were treated with 2.5 μl of diluted compounds 18h after seeding (final top concentration: 3 or 0.3 μM). After 4h of treatment, plates were equilibrated at room temperature for 30 min, and 25 μl of NANO-GLO® HiBiT Lytic reagent were added per well. Luminescence was measured on a plate reader 15 min after incubation with the detection reagent. Data were analyzed using the Genedata Screener Software version 19, and normalization was performed using the DMSO treated wells as Neutral Control and medium only (without cells) wells as Scale Reference. For curve fitting, the smart fit condensing method with a 4-parameters Hill model was used and the half-maximal degradation concentration (DC50) was calculated.

Structure (SMILES) | DC50 [nM]
C[C@H]1c2ccc(C(F)(F)F)cc2CN1C(=O)c1ccc2c(c1)CN(C1CCC(=O)NC1=O)C2=O (stereo partly drawn) [Compound 38, 3-(5-((S)-1-methyl-5-(trifluoromethyl)isoindoline-2-carbonyl)-1-oxoisoindolin-2-yl)piperidine-2,6-dione] | 7.6
COc1ccc2c(c1)CN(C(=O)c1ccc3c(c1)[C@@H](C)N([C@H]1CCC(=O)NC1=O)C3=O)[C@H]2CN(C)C [Compound 28, (S)-3-((R)-5-((R)-1-((dimethylamino)methyl)-5-methoxyisoindoline-2-carbonyl)-3-methyl-1-oxoisoindolin-2-yl)piperidine-2,6-dione] | 1.7
C[C@@H]1c2cc(C(=O)N3Cc4cc(C(F)(F)F)ccc4[C@@H]3C)ccc2C(=O)N1[C@@H]1CCC(=O)NC1=O [Compound 37, (R)-3-((R)-3-methyl-5-((S)-1-methyl-5-(trifluoromethyl)isoindoline-2-carbonyl)-1-oxoisoindolin-2-yl)piperidine-2,6-dione] | 6.5
C[C@@H]1c2cc(C(=O)N3Cc4c(ccc(C(F)(F)F)c4Cl)[C@@H]3C)ccc2C(=O)N1[C@H]1CCC(=O)NC1=O [Compound 34, (S)-3-((R)-5-((S)-4-chloro-1-methyl-5-(trifluoromethyl)isoindoline-2-carbonyl)-3-methyl-1-oxoisoindolin-2-yl)piperidine-2,6-dione] | 3.1
COc1c(C(=O)N2Cc3cc(C(F)(F)F)ccc3[C@@H]2C)ccc2c1[C@@H](C)N([C@H]1CCC(=O)NC1=O)C2=O [Compound 35, (S)-3-((R)-4-methoxy-3-methyl-5-((S)-1-methyl-5-(trifluoromethyl)isoindoline-2-carbonyl)-1-oxoisoindolin-2-yl)piperidine-2,6-dione] | 3.3
Cc1ccc2c(c1F)CN(C(=O)c1cc3c(cc1F)C(=O)N([C@H]1CCC(=O)NC1=O)[C@@H]3C)[C@H]2C [Compound 25, (S)-3-((R)-5-fluoro-6-((S)-4-fluoro-1,5-dimethylisoindoline-2-carbonyl)-1-methyl-3-oxoisoindolin-2-yl)piperidine-2,6-dione] | 1.6
C[C@@H]1c2cc(C(=O)N3Cc4c(ccc(Br)c4Cl)[C@@H]3C)ccc2C(=O)N1[C@H]1CCC(=O)NC1=O [Compound 24, (S)-3-((R)-5-((S)-5-bromo-4-chloro-1-methylisoindoline-2-carbonyl)-3-methyl-1-oxoisoindolin-2-yl)piperidine-2,6-dione] | 1.3

The next molecules have a lower DC50 than those just listed; values first:

DC50 [nM] | Structure (SMILES)
1.2 | C[C@@H]1c2cc(C(=O)N3Cc4c(ccc(Cl)c4F)[C@@H]3CN3CCC3)ccc2C(=O)N1[C@H]1CCC(=O)NC1=O [Compound 17, (S)-3-((R)-5-((R)-1-(azetidin-1-ylmethyl)-5-chloro-4-fluoroisoindoline-2-carbonyl)-3-methyl-1-oxoisoindolin-2-yl)piperidine-2,6-dione]
0.78 | C[C@@H]1c2cc(C(=O)N3Cc4cc(F)ccc4[C@@H]3C)ccc2C(=O)N1[C@H]1CCC(=O)NC1=O [Compound 13, (S)-3-((R)-5-((S)-5-fluoro-1-methylisoindoline-2-carbonyl)-3-methyl-1-oxoisoindolin-2-yl)piperidine-2,6-dione]
0.73 | C[C@@H]1c2cc(C(=O)N3Cc4c(ccc(Cl)c4F)[C@@H]3CN3CCC(F)CC3)ccc2C(=O)N1[C@H]1CCC(=O)NC1=O [Compound 12, (S)-3-((R)-5-((R)-5-chloro-4-fluoro-1-((4-fluoropiperidin-1-yl)methyl)isoindoline-2-carbonyl)-3-methyl-1-oxoisoindolin-2-yl)piperidine-2,6-dione]
0.72 | COc1cccc2c1CN(C(=O)c1ccc3c(c1)[C@@H](C)N([C@H]1CCC(=O)NC1=O)C3=O)[C@H]2CN(C)C [Compound 11, (S)-3-((R)-5-((R)-1-((dimethylamino)methyl)-4-methoxyisoindoline-2-carbonyl)-3-methyl-1-oxoisoindolin-2-yl)piperidine-2,6-dione]
0.66 | C[C@@H]1c2cc(C(=O)N3Cc4cc(Br)ccc4[C@@H]3C)ccc2C(=O)N1[C@H]1CCC(=O)NC1=O [Compound 9, (S)-3-((R)-5-((S)-5-bromo-1-methylisoindoline-2-carbonyl)-3-methyl-1-oxoisoindolin-2-yl)piperidine-2,6-dione]
0.42 | C[C@@H]1c2cc(C(=O)N3Cc4c(ccc(Cl)c4F)[C@@H]3CN3CCCC3)ccc2C(=O)N1[C@H]1CCC(=O)NC1=O [Compound 4, (S)-3-((R)-5-((R)-5-chloro-4-fluoro-1-(pyrrolidin-1-ylmethyl)isoindoline-2-carbonyl)-3-methyl-1-oxoisoindolin-2-yl)piperidine-2,6-dione]
